Measured values: ChEMBL document CHEMBL1145755, “Design, synthesis and biological activity of novel dimethyl-[2-[6-substituted-indol-1-yl]-ethyl]-amine as potent, selective, and orally-bioavailable 5-HT(1D) agonists” (Bioorg Med Chem Lett, 2003)
Blank lines part the entries; values can stand above or below the molecule they belong to.

Key:
[1] = molecular target: T1, 5-hydroxytryptamine receptor 1D (Homo sapiens, UniProt P28221); assay: Displacement of [3H]5-HT from human 5-hydroxytryptamine 1D receptor expressed in Chinese hamster ovary cells (CHO cells); assay type: cell-based
T1 sequence (P28221 whole entry): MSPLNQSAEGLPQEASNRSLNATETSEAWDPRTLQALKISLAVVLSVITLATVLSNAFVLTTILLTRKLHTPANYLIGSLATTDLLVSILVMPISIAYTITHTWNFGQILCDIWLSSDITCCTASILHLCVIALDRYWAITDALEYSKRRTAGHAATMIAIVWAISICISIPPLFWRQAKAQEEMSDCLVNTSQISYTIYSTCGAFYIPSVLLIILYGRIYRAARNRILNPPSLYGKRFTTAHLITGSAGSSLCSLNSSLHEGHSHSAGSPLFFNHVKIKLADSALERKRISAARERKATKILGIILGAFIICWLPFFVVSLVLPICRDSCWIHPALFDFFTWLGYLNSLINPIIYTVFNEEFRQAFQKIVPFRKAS

[2] = molecular target: T1, 5-hydroxytryptamine receptor 1D; assay: Inhibition of [3H]5-HT binding to human 5-hydroxytryptamine 1D receptor expressed in CHO cells at 1 uM; assay type: cell-based
[3] = molecular target: T1, 5-hydroxytryptamine receptor 1D; assay: Selectivity of compound to human 5-HT1D receptor to that of human 5-HT1B receptor
[4] = Cmax in rat; assay type: ADME, organism-based; conditions: in vivo
[5] = Half period in rat after intravenous administration; assay type: ADME, organism-based; conditions: in vivo
[6] = molecular target: T1, 5-hydroxytryptamine receptor 1D; assay: Inhibition of binding towards 5-hydroxytryptamine 1D receptor at 100 nM concentration
[7] = molecular target: T2, D(4) dopamine receptor (Homo sapiens) (UniProt P21917); assay: Inhibition of binding towards dopamine 4 receptor at 100 nM concentration
T2 sequence (whole entry): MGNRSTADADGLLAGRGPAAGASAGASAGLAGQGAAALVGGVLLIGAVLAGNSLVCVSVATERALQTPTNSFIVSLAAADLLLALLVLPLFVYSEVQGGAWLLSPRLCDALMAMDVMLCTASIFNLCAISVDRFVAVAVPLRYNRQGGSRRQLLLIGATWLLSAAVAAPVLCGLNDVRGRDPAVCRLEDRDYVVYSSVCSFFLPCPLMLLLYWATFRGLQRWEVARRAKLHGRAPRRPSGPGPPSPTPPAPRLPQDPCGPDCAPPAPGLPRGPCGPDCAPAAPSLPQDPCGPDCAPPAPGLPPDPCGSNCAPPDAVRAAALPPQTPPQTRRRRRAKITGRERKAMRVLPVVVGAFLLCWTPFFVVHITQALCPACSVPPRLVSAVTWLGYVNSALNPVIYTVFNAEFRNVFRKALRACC

[8] = molecular target: Adrenergic receptor alpha-1 (Homo sapiens) (UniProt P35348+P25100+P35368); assay: Inhibition of binding towards Alpha-1 adrenergic receptor at 100 nM concentration; assay type: protein assay
Rattus norvegicus [9] = species: Rattus norvegicus; assay: In vitro metabolic stability of compound after 30 min incubation in the presence of rat liver microsomes; assay type: functional
[10] = molecular target: Muscarinic acetylcholine receptors; M1 & M2 (Homo sapiens) (UniProt P11229+P08172); assay: Inhibition of binding towards muscarinic (M1+M2) receptor at 100 nM concentration; assay type: protein assay
[11] = molecular target: 5-hydroxytryptamine receptor 1B (Homo sapiens) (UniProt P28222); assay: Inhibition of binding towards 5-hydroxytryptamine 1B receptor at 100 nM concentration
Chain of 5-hydroxytryptamine receptor 1B (Homo sapiens) (P28222 whole entry): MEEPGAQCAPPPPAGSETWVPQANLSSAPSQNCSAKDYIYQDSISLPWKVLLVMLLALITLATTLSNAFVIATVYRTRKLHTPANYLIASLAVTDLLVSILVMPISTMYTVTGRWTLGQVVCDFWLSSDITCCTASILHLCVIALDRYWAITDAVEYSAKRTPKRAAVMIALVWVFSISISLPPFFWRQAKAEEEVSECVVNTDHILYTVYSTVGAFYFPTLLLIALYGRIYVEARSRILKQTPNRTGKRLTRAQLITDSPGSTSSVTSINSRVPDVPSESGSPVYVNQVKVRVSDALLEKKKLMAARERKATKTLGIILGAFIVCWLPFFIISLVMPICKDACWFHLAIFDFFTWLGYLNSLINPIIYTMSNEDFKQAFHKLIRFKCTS

Rattus norvegicus [12] = assay: Area under curve was determined after peroral administration in rat; assay type: ADME, organism-based; conditions: in vivo, po
[13] = Plasma clearance was determined in rat; assay type: ADME, organism-based
[14] = Compound distribution in rat tissues was determined; assay type: ADME, organism-based; conditions: in vivo
[15] = molecular target: D(2) dopamine receptor (Homo sapiens) (UniProt P14416); assay: Inhibition of binding towards dopamine 2 receptor at 100 nM concentration
Chain of D(2) dopamine receptor (Homo sapiens) (P14416 whole entry): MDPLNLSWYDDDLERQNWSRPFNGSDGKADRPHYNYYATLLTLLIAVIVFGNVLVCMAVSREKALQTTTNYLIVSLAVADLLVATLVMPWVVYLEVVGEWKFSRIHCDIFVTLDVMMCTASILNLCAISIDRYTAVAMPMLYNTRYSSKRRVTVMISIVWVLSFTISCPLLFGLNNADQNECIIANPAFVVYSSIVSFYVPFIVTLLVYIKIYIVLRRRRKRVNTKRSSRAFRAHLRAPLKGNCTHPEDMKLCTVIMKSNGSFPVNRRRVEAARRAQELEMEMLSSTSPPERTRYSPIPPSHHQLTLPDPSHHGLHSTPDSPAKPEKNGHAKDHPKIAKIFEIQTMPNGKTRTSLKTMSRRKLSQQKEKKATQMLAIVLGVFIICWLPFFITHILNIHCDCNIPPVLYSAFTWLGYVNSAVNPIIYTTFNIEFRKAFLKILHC

Homo sapiens = species: Homo sapiens; assay: In vitro metabolic stability of compound after 30 min incubation in the presence of human liver microsomes; assay type: functional
[16] = molecular target: T3, 5-hydroxytryptamine receptor 1A (Homo sapiens) (UniProt P08908); assay: Inhibition of binding towards 5-hydroxytryptamine 1A receptor at 100 nM concentration
T3 sequence (whole entry): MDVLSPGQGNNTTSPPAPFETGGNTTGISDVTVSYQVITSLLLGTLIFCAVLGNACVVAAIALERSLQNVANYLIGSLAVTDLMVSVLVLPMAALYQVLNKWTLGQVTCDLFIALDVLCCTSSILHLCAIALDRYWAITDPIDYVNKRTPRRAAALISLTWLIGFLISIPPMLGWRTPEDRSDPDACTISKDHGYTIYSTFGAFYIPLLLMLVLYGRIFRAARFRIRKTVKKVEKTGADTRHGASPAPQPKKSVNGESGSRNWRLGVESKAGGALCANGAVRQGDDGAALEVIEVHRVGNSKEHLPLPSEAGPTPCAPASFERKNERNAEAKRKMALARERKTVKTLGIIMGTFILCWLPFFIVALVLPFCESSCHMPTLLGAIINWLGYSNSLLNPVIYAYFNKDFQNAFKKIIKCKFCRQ

[17] = Oral bioavailability in rat; assay type: ADME, organism-based; conditions: in vivo
[18] = molecular target: T4, 5-hydroxytryptamine receptor 2C (Homo sapiens) (UniProt P28335); assay: Inhibition of binding towards 5-hydroxytryptamine 2C receptor at 100 nM concentration
T4 sequence (whole entry): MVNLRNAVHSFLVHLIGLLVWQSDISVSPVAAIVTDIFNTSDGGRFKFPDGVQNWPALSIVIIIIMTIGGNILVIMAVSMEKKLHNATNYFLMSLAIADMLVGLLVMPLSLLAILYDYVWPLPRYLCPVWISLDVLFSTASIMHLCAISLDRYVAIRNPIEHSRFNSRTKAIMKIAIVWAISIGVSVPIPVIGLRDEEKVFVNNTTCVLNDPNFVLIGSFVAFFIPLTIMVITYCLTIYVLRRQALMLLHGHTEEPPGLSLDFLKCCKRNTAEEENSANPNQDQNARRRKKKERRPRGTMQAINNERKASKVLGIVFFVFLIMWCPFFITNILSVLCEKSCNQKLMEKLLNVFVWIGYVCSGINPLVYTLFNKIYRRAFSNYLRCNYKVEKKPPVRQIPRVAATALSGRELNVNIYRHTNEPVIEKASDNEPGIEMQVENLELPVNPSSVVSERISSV

[19] = molecular target: D(3) dopamine receptor (Homo sapiens) (UniProt P35462); assay: Inhibition of binding towards dopamine 3 receptor at 100 nM concentration
Chain of D(3) dopamine receptor (Homo sapiens) (P35462 whole entry): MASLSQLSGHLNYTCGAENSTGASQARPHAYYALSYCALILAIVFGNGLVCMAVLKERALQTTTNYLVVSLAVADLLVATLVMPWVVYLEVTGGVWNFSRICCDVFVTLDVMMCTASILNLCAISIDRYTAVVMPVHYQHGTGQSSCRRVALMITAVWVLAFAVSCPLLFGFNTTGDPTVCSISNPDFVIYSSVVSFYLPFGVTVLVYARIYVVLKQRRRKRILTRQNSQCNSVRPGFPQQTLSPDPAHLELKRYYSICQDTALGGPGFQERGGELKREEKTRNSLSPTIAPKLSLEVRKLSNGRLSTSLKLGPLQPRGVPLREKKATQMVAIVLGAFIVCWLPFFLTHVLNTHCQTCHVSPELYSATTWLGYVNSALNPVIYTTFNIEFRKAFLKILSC

[20] = molecular target: 5-hydroxytryptamine receptor 7 (Homo sapiens) (UniProt P34969); assay: Inhibition of binding towards 5-hydroxytryptamine 7 receptor at 100 nM concentration
Chain of 5-hydroxytryptamine receptor 7 (Homo sapiens) (P34969 whole entry): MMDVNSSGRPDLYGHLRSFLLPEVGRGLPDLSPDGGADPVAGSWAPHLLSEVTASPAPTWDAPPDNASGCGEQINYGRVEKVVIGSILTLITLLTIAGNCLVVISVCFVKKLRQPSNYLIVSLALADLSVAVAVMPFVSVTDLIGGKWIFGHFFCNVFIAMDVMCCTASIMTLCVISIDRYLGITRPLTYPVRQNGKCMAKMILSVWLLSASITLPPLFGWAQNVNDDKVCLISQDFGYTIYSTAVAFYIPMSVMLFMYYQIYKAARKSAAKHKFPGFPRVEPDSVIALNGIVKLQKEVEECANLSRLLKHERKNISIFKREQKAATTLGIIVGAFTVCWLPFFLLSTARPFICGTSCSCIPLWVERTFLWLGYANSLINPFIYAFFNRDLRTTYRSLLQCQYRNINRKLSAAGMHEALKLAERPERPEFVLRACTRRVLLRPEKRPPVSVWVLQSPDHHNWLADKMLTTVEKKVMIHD

[21] = molecular target: 5-hydroxytryptamine receptor 6 (Homo sapiens) (UniProt P50406); assay: Inhibition of binding towards 5-hydroxytryptamine 6 receptor at 100 nM concentration
Chain of 5-hydroxytryptamine receptor 6 (Homo sapiens) (P50406 whole entry): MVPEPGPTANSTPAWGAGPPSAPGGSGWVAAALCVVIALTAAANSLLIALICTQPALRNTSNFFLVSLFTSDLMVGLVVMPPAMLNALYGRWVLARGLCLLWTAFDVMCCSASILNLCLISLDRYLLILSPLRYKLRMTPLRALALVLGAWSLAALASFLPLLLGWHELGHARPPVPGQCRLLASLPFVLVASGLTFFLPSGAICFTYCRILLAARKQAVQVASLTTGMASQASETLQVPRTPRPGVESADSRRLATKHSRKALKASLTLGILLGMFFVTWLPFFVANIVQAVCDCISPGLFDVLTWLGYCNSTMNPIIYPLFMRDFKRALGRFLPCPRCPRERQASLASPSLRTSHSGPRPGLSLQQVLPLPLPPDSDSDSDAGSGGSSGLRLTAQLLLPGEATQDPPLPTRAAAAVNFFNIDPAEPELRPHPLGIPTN

[22] = molecular target: D(1B) dopamine receptor (Homo sapiens) (UniProt P21918); assay: Inhibition of binding towards dopamine 5 receptor at 100 nM concentration
Chain of D(1B) dopamine receptor (Homo sapiens) (P21918 whole entry): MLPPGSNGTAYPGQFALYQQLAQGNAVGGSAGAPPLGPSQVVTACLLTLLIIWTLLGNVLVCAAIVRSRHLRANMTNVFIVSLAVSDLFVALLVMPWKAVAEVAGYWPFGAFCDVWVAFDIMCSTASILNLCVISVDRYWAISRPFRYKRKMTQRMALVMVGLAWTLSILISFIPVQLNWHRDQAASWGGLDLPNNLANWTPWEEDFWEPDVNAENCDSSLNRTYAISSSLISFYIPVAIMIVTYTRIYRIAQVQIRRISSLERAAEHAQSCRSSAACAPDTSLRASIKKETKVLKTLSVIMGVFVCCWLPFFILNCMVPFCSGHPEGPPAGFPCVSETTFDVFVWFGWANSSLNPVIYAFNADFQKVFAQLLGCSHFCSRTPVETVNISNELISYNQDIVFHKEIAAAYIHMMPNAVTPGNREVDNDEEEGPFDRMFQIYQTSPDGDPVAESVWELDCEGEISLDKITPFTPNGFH

[23] = molecular target: 5-hydroxytryptamine receptor 2A (Homo sapiens) (UniProt P28223); assay: Inhibition of binding towards 5-hydroxytryptamine 2A receptor at 100 nM concentration
Chain of 5-hydroxytryptamine receptor 2A (Homo sapiens) (P28223 whole entry): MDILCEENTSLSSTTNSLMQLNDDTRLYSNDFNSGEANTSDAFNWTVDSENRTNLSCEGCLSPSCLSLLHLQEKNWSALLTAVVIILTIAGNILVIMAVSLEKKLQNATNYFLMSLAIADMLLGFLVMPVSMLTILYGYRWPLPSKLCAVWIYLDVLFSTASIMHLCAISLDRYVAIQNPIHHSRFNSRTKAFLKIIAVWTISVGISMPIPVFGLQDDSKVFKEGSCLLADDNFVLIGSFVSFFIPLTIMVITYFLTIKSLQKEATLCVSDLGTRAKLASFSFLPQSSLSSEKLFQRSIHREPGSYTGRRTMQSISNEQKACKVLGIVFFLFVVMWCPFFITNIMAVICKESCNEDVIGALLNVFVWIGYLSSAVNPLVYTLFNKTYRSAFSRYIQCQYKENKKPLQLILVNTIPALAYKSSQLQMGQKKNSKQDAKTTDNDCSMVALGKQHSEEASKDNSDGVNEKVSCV

[24] = molecular target: D(1A) dopamine receptor (Homo sapiens) (UniProt P21728); assay: Inhibition of binding towards dopamine 1 receptor at 100 nM concentration
Chain of D(1A) dopamine receptor (Homo sapiens) (P21728 whole entry): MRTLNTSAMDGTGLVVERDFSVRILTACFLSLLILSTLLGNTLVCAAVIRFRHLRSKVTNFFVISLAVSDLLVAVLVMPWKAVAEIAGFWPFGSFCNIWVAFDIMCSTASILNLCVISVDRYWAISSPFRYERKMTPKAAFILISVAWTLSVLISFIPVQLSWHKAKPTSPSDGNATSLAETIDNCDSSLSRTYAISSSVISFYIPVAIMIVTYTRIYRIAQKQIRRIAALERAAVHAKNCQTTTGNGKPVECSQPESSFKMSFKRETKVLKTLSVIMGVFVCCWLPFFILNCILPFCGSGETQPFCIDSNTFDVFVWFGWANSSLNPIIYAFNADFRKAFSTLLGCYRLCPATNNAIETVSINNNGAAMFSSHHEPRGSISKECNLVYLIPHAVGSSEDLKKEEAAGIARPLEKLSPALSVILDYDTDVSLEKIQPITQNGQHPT

[25] = molecular target: T1, 5-hydroxytryptamine receptor 1D; assay: Ability to inhibit forskolin-stimulated adenylate cyclase activity in Chinese hamster ovary (CHO) stable cell lines expressing human 5-hydroxytryptamine 1D receptor; assay type: functional

Structure (SMILES): CN(C)CCn1ccc2ccc(-c3cccnc3)cc21
- inhibition [2]: 98%
- Ki [1]: 1.4 nM
- Selectivity [3]: 17

Structure (SMILES): CN(C)CCn1ccc2ccc(-c3ccc4ccccc4c3)cc21
- inhibition [2]: 79%
- Ki [1]: 57 nM
- Selectivity [3]: 5.5

Structure (SMILES): CN(C)CCn1ccc2ccc(C3=CCN(C)CC3)cc21
- inhibition [2]: 84%

Structure (SMILES): CNC(=O)c1ccc2c(c1)CCO[C@H]2CCN1CCN(c2ccc(C(N)=O)cc2)CC1
- Ki [1]: 4.6 nM

Structure (SMILES): CN(C)CCn1ccc2ccc(C3(O)CCOCC3)cc21
- Ki [1]: 3.4 nM
- Selectivity [3]: 48

Structure (SMILES): CN(C)CCn1ccc2ccc(C3(O)CCSCC3)cc21
- Cmax [4]: 538 ng/mL
- half-life [5]: 1.5 h
- inhibition [2]: 99%
- Ki [1]: 2 nM
- inhibition [6]: 96%
- inhibition [7]: 2%
- inhibition [8]: 1%
- Remaining (Rattus norvegicus [9]): 79%
- inhibition [10]: 0%
- inhibition [11]: 46%
- AUC (Rattus norvegicus [12]): 21265 ng·mL/kg
- clearance [13]: 74 mL/min/kg
- Vd [14]: 8.61 L/kg
- inhibition [15]: 0%
- Remaining (Homo sapiens): 70%
- inhibition [16]: 27%
- bioavailability [17]: 51.1%
- Selectivity [3]: 57
- inhibition [18]: 4%
- inhibition [19]: 0%
- inhibition [20]: 5%
- inhibition [21]: 0%
- inhibition [22]: 1%
- inhibition [23]: 0%
- inhibition [24]: 0%
- EC50 [25]: 0.3 nM

Structure (SMILES): CN(C)CCn1ccc2ccc(C3CCN(C)CC3)cc21
- inhibition [2]: 74%

Structure (SMILES): CN(C)CCn1ccc2ccc(C3=CCOCC3)cc21
- Ki [1]: 32 nM
- Selectivity [3]: 28

Structure (SMILES): CN(C)CCn1ccc2ccc(C3(O)CCN(C)CC3)cc21
- inhibition [2]: 44%

Structure (SMILES): OC[C@H](NC1CCN(CCCc2c[nH]c3ccc(-n4cnnc4)cc23)CC1)c1ccc(F)cc1
- Ki [1]: 0.9 nM

The next lines start with the values.

- Ki [1]: 3.7 nM
Structure (SMILES): CN(C)CCn1ccc2ccc(C3CCOCC3)cc21

- inhibition [2]: 85%
Structure (SMILES): CN(C)CCn1ccc2ccc(N3CCOCC3)cc21

- inhibition [2]: 88%
Structure (SMILES): CN(C)CCn1ccc2ccc(N3CCSCC3)cc21

- inhibition [2]: 95%
- Ki [1]: 22 nM
- Selectivity [3]: 7.4
Structure (SMILES): CN(C)CCn1ccc2ccc(C3=CCSCC3)cc21

- inhibition [2]: 99%
- Ki [1]: 7.3 nM
- Selectivity [3]: 22
Structure (SMILES): CN(C)CCn1ccc2ccc(-c3ccsc3)cc21

- inhibition [2]: 86%
Structure (SMILES): CN(C)CCn1ccc2ccc(-c3ccc(C(F)(F)F)cc3)cc21

- inhibition [2]: 99%
- Ki [1]: 5.6 nM
- Selectivity [3]: 48
Structure (SMILES): CN(C)CCn1ccc2ccc(C3CCSCC3)cc21
